In patent publication US11028085B2, “Substituted isoindolin-1-ones and 2,3-dihydro-1h-pyrrolo[3,4-c]pyridin-1-ones as hpk1 antagonists” (Nimbus Saturn, Inc., priority 2019, dated 2021) one finds IC50 data, which are given here for 32 molecules.

As a reminder, the pIC50 is the IC50 on a negative log10 scale, so that one unit is a factor of ten.

pIC50: −log10 of the molar value. Structures can show the parent of a compound that is named as a salt. A value given as a limit tells only on which side of the number the result lay.

Sequence of HPK1 (Q92918 whole entry): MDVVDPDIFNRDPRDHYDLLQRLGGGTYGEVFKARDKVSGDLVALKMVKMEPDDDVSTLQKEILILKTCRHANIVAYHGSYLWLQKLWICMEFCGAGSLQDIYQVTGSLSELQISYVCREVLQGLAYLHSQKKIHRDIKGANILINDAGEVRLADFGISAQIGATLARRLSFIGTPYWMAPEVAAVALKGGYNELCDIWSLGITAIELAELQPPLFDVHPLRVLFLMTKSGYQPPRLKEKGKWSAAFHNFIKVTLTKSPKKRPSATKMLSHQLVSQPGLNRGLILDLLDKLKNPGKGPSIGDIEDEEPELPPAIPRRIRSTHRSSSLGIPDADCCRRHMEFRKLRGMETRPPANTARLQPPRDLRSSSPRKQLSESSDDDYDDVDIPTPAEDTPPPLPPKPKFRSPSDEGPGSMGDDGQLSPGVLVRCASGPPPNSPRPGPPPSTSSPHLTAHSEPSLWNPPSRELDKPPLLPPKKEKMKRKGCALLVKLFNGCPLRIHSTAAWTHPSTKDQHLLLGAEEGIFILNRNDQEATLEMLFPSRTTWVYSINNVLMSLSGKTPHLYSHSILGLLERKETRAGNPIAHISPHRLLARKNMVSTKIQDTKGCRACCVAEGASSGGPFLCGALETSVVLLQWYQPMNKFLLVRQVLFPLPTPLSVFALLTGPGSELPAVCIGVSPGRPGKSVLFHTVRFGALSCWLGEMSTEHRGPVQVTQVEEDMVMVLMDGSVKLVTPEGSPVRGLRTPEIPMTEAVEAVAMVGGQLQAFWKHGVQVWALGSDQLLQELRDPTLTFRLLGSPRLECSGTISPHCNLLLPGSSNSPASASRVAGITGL

The target in this experiment is HPK1 (Homo sapiens (Human), UniProt Q92918). Briefly: HPK1 biochemical enzyme assay (microfluidic mobility shift assay). The note with it: 1.5 nM HPK1, ATP 1 mM final, 60 min at RT, Caliper EZ Reader; read-out: HPK1 1000UMATP caliper IC50. The protocol:
HPK1 biochemical enzyme assay: HPK1 enzyme inhibition was measured using a microfluidic mobility shift assay. […] Test compounds were titrated in ten point curves (top final assay concentration […]), and preincubated with enzyme/substrate mix for 30 min prior to initiation of the reaction by addition of ATP (1 mM final concentration) and substrate (1 μM final concentration; Carna Biosciences) diluted in assay buffer supplemented by MgCl2 (final assay concentration of 5 mM). Following 60 min incubation at RT, the reaction was terminated by addition of 60 µl/well termination buffer (Carna Biosciences) and signal determination using a Caliper EZ Reader (Perkin Elmer, UK). […] The compound numbers correspond to the compound numbers in Table 1.
For the molecule “7-((5-((3R,4R)-4-fluoro-3-hydroxypiperidin-1-yl)pyridin-2-yl)amino)-4-(imidazo[1,2-a]pyrazin-3-yl)isoindolin-1-one [I-434]”, the pIC50 is above 7.00.
Next, `O=C1NCc2c(-c3cnc4cc(F)ccn34)ccc(Nc3ccc(C4CCOCC4)cn3)c21` [I-341]: above 7.00.
With “(R)-7-((6- ((dimethylamino)- methyl)-5-(3-(2- hydroxypropan- 2-yl)piperidin-1- yl)pyridin-2- yl)amino)-4-(7- fluoroimidazo [1,2-a]pyridin- 3-yl)isoindolin- 1-one [I-745]” the figure was above 7.00; with `O=C1NCc2c(-c3cnc4cc(CO)ccn34)ccc(Nc3ccc(N4CCC(O)CC4)cn3)c21` [I-177, 4-[7-(hydroxymeth-yl)imidazo[1,2-a]pyridin-3-yl]-7-[[5-(4-hydroxy-1-piperidyl)-2-pyripyl]amino] isoindolin-1-one], above 7.00.
In the case of `CC1NC(=O)c2c(Nc3ccc(N4CCC(O)CC4)cn3)ccc(-c3ccnc4c3ccn4C)c21` (stereo in doubt) [I-286, (S)-7-((5-(4-hydroxypiperidin-1-yl)pyridin-2-yl)amino)-3-methyl-4-(1-methyl-1H-pyrrolo[2,3-b]pyridin-4-yl)isoindolin-1-one], the pIC50 was below 6.00.
Regarding `CC(C)(O)[C@H]1CN(c2ccc(Nc3ccc(-c4cnc5cnccn45)c4c3C(=O)NC4)nc2)CCO1` [I-486, 7-[[5-[(2R)-2-(1-hydroxy-1-methylethyl)morpholin-4-yl]-2-pyridyl]amino]-4-imidazo[1,2-a]pyrazin-3-yl-isoindolin-1-one], the pIC50 was above 7.00.
With `Cn1ccc2c(-c3ncc(Nc4ccc(N5CCNCC5)cn4)c4c3CNC4=O)cccc21` [I-266, 4-(1-methyl-1H-indol-4-yl)-7-((5-(piperazin-1-yl)pyridin-2-yl)amino)-2,3-dihydro-1H-pyrrolo[3,4-c]pyridin-1-one] the figure was above 7.00; with `CC1NC(=O)c2c(Nc3ccc(N4CCC(O)CC4)cn3)ccc(-c3ccnc4c3ccn4C)c21` (stereo in doubt) [I-287, (R)-7-((5-(4-hydroxypiperidin-1-yl)pyridin-2-yl)amino)-3-methyl-4-(1-methyl-1H-pyrrolo[2,3-b]pyridin-4-yl)isoindolin-1-one], above 7.00; with `O=C1NCc2c(-c3cnc4cc(F)ccn34)ccc(Nc3ccn(C4CCOCC4)n3)c21` [I-382, 4-(7-fluoroimidazo [1,2-a]pyridin-3-yl)-7-((1-(tetrahydro-2H-pyran-4-yl)-1H-pyrazol-3-yl)amino)isoin-dolin-1-one], below 6.00.
Next, `COCC1(O)CCN(c2ccc(Nc3cnc(-c4ccnc5c4ccn5C)c4c3C(=O)NC4)nc2CN(C)C)CC1` [I-851, 7-1(6-[(dimethylamino)-methyl (-5-[4-hydroxy-4-(methoxymeth-yl)-1-piperidyl]-2-pyridyl]amino]-4-(1-methylpyrrolo [2,3-b]pyridin-4-yl)-2,3-dihydropyrrolo [3,4-c]pyridin-1-one Formate salt]: above 7.00; `CN(C)Cc1nc(Nc2cnc(-c3cccc4c3ccn4C)c3c2C(=O)NC3)ccc1[C@@H]1CCOC1` (single isomer, unassigned) [I-540]: above 7.00; `CN1CCN(c2nc(Nc3ccc(-c4cnc5cc(F)ccn45)c4c3C(=O)NC4)ccc2[C@@H]2CCOC2)CC1` [I-802, (S)-4-(7-fluoroimidazo [1,2-a]pyridin-3-yl)-7-((6-(4-methylpiperazin-1-yl)-5-(tetrahydrofuran-3-yl)pyridin-2-yl)amino)isoin-dolin-1-one]: above 7.00.
Next, `Cc1cccn2c(-c3ccc(Nc4ccc(C5CCOC5)c(CN(C)C)n4)c4c3CNC4=O)cnc12` (stereo in doubt) [I-695, (S)-7-((6-((dimethylamino)-methyl)-5-(tetrahydrofuran-3-yl)pyridin-2-yl)amino)-4-(8-methylimidazo [1,2-a]pyridin-3-yl)isoindolin-1-one]: above 7.00.
With `O=C1NCc2c(-c3ncc4cnccn34)ccc(Nc3ccc(N4CCC(O)CC4)cn3)c21` [I-398, 7-((5-(4-hydroxypipendin-1-yl)pyridin-2-yl)amino)-4-(imidazo[1,5-a]pyrazin-3-yl)isoindolin-1-one], the pIC50 was 6.00 to 7.00.
With “7-((5-(4-hydroxypiperidin-1-yl)pyridin-2-yl)amino)-4-(imidazo[1,2-a]pyrazin-5-yl)-2,3-dihydro-1H-pyrrolo[3,4-c]pyridin-1-one [I-376]” the figure was 6.00 to 7.00; with `Cc1cnc2c(-c3ccc(Nc4ccc(N5CCC(O)CC5)cn4)c4c3CNC4=O)cnn2c1` [I-186, 7-[[5-(4-hydroxy-1-piperidyl)-2-pyridyl)amino]-4-(6-methylpyra-zolo[1,5-a]pyrimidin-3-yl)isoindolin-1-one], above 7.00; with `Cn1ccc2c(-c3ncc(Nc4ccc(C5CCOC5)c(CN5CCCC5)n4)c4c3CNC4=O)ccnc21` (centres unmarked) [I-552, 4-(1-methylpyrrolo [2,3-b]pyridin-4-yl)-7-[[6-(pyrrolidin-1-ylmethyl)-5-tetralndrofuran-3-yl-2-pyridyl]amino]-2,3-dihydropyrrolo [3,4-c]pyridin-1-one], above 7.00.
Next, `O=C1NCc2c(-c3cnc4cc(F)ccn34)ccc(Nc3ccc(N4CCC(N5CCOCC5)CC4)cn3)c21` [I-488, 4-(7-fluoroimidazo [1,2-a]pyridin-3-yl)-7-[[5-(4-morpholino-1-piperidyl)-2-pyridyl]amino] isoindolin-1-one]: above 7.00; `CN(C)Cc1nc(Nc2cnc(-c3ccnc4c3ccn4C)c3c2C(=O)NC3)ccc1O[C@@H]1CCOC1` [I-805, (R)-7-((6-((dimethylamino)-methyl)-5-((tetrahydrofur-an-3-yl)oxy)pyridin-2-yl)amino)-4-(1-methyl-1H-pyrrolo[2,3-b]pyridin-4-yl)-2,3-dihydro-1H-pyrrolo[3,4-c]pyridin-1-one]: above 7.00.
With `CN1CCN(c2nc(Nc3ccc(-c4cnc5cc(F)ccn45)c4c3C(=O)NC4)ccc2[C@H]2CCOC2)CC1` [I-801, (R)-4-(7-fluoroimidazo [1,2-a]pyridin-3-yl)-7-((6-(4-methylpiperazin-1-yl)-5-(tetrahydrofuran-3-yl)pyridin-2-yl)amino)isoin-dolin-1-one] the figure was above 7.00.
On to “(S)-7-((6- ((dimethylamino)- methyl)-5-(3-(2- hydroxypropan- 2-yl)piperidin-1- yl)pyridin-2- yl)amino)-4-(7- fluoroimidazo [1,2-a]pyridin- 3-yl)isoindolin- 1-one [I-746]”, for which the pIC50 is above 7.00.
With `C[C@@H]1CN(c2ccc(Nc3ccc(-c4cnc5cc(F)ccn45)c4c3C(=O)NC4)nc2CN(C)C)CCO1` [I-541, 7-[[6-[(dimethylamino)-methyl]-5-[(2R)-2-methylmorpho-lin-4-yl]-2-pyridyl]amino] 4-(7-fluoroimidazo [1,2-a]pyridin-3-yl)isoindolin-1-one] the figure was above 7.00; with `Cc1ccn2c(-c3ncc(Nc4cccc(N5CCC6CNCC65)n4)c4c3CNC4=O)cnc2c1F` (centres unmarked) [I-481], above 7.00.
With `Cc1cccn2c(-c3ccc(Nc4ccc(C5CCOC5)c(CN(C)C)n4)c4c3CNC4=O)cnc12` (stereo in doubt) [I-696, (R)-7-((6-((dimethylamino)-methyl)-5-(tetrahydrofuran-3-yl)pyridin-2-yl)amino)-4-(8-methylimidazo [1,2-a]pyridin-3-yl)isoindolin-1-one] the figure was above 7.00; with `O=C1NCc2c(-c3cnc4cc(F)ccn34)ccc(Nc3ccc(N4CCC(O)CC4)cn3)c21` [I-138], above 7.00; with `Cc1ccn2c(-c3ncc(Nc4cccc(N5CC[C@@H]6CNC[C@@H]65)n4)c4c3CNC4=O)cnc2c1F` [I-480, 7-[[6-[(3aR,6aR)-3.3a,4,5,6.6a-hexahydro-2H-pyrrolo[2,3-c]pyrrol-1-yl]-2-pyridyl]amino]-4-(8-fluoro-7-methyl-imidazo[1,2-a]pyridin-3-yl)-2,3-dihydropyrrolo [3,4-c]pyridin-1-one], 6.00 to 7.00.
In the case of `COCC1CN(c2ccc(Nc3ccc(-c4cnc5cc(F)ccn45)c4c3C(=O)NC4)nc2CN(C)C)CCO1` (stereo in doubt) [I-711, (R)-7-((6-((dimethylamino)-methyl)-5-(2-(methoxymeth-yl)morpholino)pyridin-2-yl)amino)-4-(7-fluoroimidazo [1,2-a]pyridin-3-yl)isoindolin-1-one], the negative-log IC50 (pIC50) is above 7.00.
With `O=C1NCc2c(-c3cnc4cc(F)ccn34)ccc(Nc3ccc(N4CCO[C@H]5CNC[C@H]54)cn3)c21` [I-694, 4-(7-fluoroimidazo [1,2-a]pyridin-3-yl)-7-((5-((4aR,7aS)-hexahydro-pyrrolo[3,4-b][1.4]oxazin-4(4aH)-yl)pyridin-2-yl)amino)isoin-dolin-1-one] the figure was above 7.00; with `Cc1ccn2c(-c3ccc(Nc4ccc([C@H]5CCOC5)c(CN(C)C)n4)c4c3CNC4=O)cnc2n1` (stereo in doubt) [I-561, 7-[[6-[(dimethylamino)-methyl]-5-tetralndrofliran-3-yl-2-pyridyl]amino] 4-(7-methylimidazo [1,2-a]pyrimidin-3-yl)isoindolin-1-one], above 7.00.
With `O=C1NCc2c(-c3cnc4cc(F)ccn34)ccc(Nc3ccc(N4CCO[C@@H]5CNC[C@@H]54)cn3)c21` [I-690] the figure was above 7.00.
With `Cc1cccn2c(-c3ncc(Nc4ccc(C5CCOC5)c(CN(C)C)n4)c4c3CNC4=O)cnc12` (centres unmarked) [I-539] the figure was above 7.00.
As to `O=C1NCc2c(-c3cnc4ccccn34)ncc(Nc3ccc(N4CCOCC4)cn3)c21` [I-198, 4-imidazo[1,2-a]pyridin-3-yl-7-[(5-morpholino-2-pyridyl)-amino]-2,3-dihydropyrrolo [3,4-c]pyridin-1-one], the pIC50 was 6.00 to 7.00.
